Test results from patent US20150374784A1, “COMPOSITIONS AND METHODS FOR REDUCING GERM CELL DEATH” (Los Angeles Biomedical Research Institute at Harbor-UCLA …, priority 2014, published 2015).

Columns and labels:
[1] = tested on: HEK293 (normal embryonic kidney cells); test: Autophagy induction (LC3-II, mRFP-GFP-LC3) in HEK293; format: cell-based
Description: The increased level of LC3-II, a marker of autophagosome was examined by Western blot and immunocytochemistry. The increase of autophagosomes and autolysosomes in HEK293 cells stably expressing mRFP-GFP-LC3, a dual-tag reporter of autophagy, was examined following humanin treatment. In addition, the signaling pathways activated by humanin using a phospho-antibody array in SH-SY5Y cells was investigated. […] Both activation and suppression of autophagy are involved in cancer pathogenesis and treatment, depending on the context.

[2] = tested on: Leydig cells; test: Testosterone of cultured Leydig cells treated with ketoconazole; format: cell-based, rat; conditions: HN 10 mcg/ml + KTZ 10 mcg/ml, 4 hours
Description: Leydig cells were isolated based on a previously described procedure (Gao, et al., 1996; Klinefelter, et al., 1987; Salva, et al., 2001). Briefly, the testes were decapsulated, and then dissociated with collagenase, dispase, DNase and shaking for 15 min at 34° C. The seminiferous tubules were removed by filtration through 40 μm nylon mesh (BD Falcon, Franklin Lakes, N.J.). Leydig cells were then harvested after centrifugation and purified using a Percoll gradient (GE Healthcare, Uppsala, Sweden) and centrifugation (60 minutes at 20,000 g at 4° C.). Enriched Leydig cells were harvested at densities between 1.065 (red) and 1.075 (blue) g/cm^3 from the percoll gradient. These Leydig cells were washed by diluting the percoll and excluding residual germ cells and other cells using a BSA density gradient with centrifugation. The purity of the Leydig cells was >90%, as determined by histochemical staining for 3β-hydroxysteroid dehydrogenase. The cell viability, as assessed by trypan blue exclusion, was greater than 90%. […]
Testosterone concentrations in plasma, testes, and culture medium were measured by a previously described radioimmunoassay (Lue, et al., 2010) with a minimal detection limit of 0.1 ng/ml. […]

[3] = tested on: sperm; test: Cauda epididymal sperm count after multiple doses of CP in mice; format: in vivo, mouse; conditions: 28 days; HNG 10 mg/kg BW daily subcutaneously; CP 150 mg/kg BW IP, 6 doses at 5-day intervals
Description: The objective of this study was to investigate whether HNG has protective effect on sperm output after multiple doses of CP in mice. Thirty adult male mice (C57BL/6J) were randomized into 4 groups: 1) 5 as control; 2) 5 received daily subcutaneously injection of HNG (10 mg/kg BW); 3) 10 were given 6 doses of CP (150 mg/kg BW) intraperitoneally at 5-day intervals; 4) 10 received both HNG and CP. All mice were killed at 28 days. Plasma HNG and IGF-1 levels were measured by ELISAs. The cauda epididymal sperm count was performed using a hemocytometer.

Row | Compound | autophagy [1] | KTZ induced decrease in testosterone production by Leydig cells [2] | cauda epididymal sperm count [3]
1 | MAPRGFSCLLLLTSEIDLPVKRRA [HN, 24-amino acid mitochondrial derived peptide] | induces autophagy | did not salvage the KTZ induced decrease in testosterone production | –
2 | O=P1(N(CCCl)CCCl)NCCCO1 (stereo not drawn) [CP, cyclophosphamide monohydrate] | – | – | 0.5±0.1 ×10^6/mg
